In patent US20100291151A1, “1-METHYLPYRAZOLE MODULATORS OF SUBSTANCE P, CALCITONIN GENE-RELATED PEPTIDE, ADRENERGIC RECEPTOR, AND/OR 5-HT RECEPTOR” (priority 2009, published 2010):

Experiments:
Format in all cases: in vitro ADME
Supersomes CYP3A5 = target: T1, Supersomes CYP3A5 (Homo sapiens, UniProt P20815); test: Individual recombinant CYP isoform stability assay, CYP3A5; conditions: 200 pmol per mL CYP3A5, 5 microgram per mL compound, 37° C., 0-60 minutes
T1 construct: purchased
Experimental: (§1) In Vitro Individual Recombinant CYP Isoform Stability Assays
(§2) Individual recombinant CYP isoform stability assays were conducted with Supersomes™ CYP2C19, CYP3A4, CYP3A5, CYP2D6, CYP2C8, and CYP2C9. The CYP isoforms were individually taken up in a NADPH-generating system (4.4 mM NADPH, 51.2 mM glucose 6-phosphate, 12 units per mL glucose 6-phosphate dehydrogenase and 6.6 mM magnesium chloride) in 2% sodium bicarbonate. The final assay concentrations were 100 pmol per mL for the following isoforms: CYP3A4, CYP2C19, and CYP2D6; other CYP isoforms final assay concentrations were 150 pmol per mL, including: CYP1A2 and CYP2C9; and yet other CYP isoforms final assay concentrations were 200 pmol per mL, including: CYP3A5 and CYP2C8. Test compounds were prepared as solutions in 20% acetonitrile-water and added to the assay mixture (final assay concentration 5 microgram per mL) and incubated at 37° C. Final concentration of acetonitrile in the assay should be <1%. Aliquots (50 μL) were taken out at times 0, 15, 30, 45, and 60 minutes, and diluted with ice cold acetonitrile (200 μL) to stop the reactions. Samples were centrifuged at 12,000 RPM for 10 minutes to precipitate proteins. Supernatants were transferred to microcentrifuge tubes and stored for LC/MS/MS analysis of the degradation half-life of the test compounds. […]

Supersomes CYP2C9 = target: T2, Supersomes CYP2C9 (Homo sapiens, UniProt P11712); test: Individual recombinant CYP isoform stability assay, CYP2C9; conditions: 150 pmol per mL CYP2C9, 5 microgram per mL compound, 37° C., 0-60 minutes
T2 construct: purchased
T2 sequence (P11712 whole entry, canonical isoform): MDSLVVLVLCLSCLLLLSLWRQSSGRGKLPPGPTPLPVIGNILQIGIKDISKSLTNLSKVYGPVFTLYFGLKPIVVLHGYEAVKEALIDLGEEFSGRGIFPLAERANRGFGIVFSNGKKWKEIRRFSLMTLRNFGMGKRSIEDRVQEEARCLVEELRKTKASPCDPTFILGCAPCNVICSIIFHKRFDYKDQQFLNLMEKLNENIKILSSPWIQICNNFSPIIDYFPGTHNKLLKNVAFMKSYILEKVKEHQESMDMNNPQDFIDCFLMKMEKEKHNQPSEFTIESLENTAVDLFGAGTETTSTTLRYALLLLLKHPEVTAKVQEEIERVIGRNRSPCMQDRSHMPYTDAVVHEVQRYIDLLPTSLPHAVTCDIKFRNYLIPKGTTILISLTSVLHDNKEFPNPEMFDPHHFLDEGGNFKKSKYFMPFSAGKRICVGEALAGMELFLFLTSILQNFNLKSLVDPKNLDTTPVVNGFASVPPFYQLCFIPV
Experimental: as §1, §2

Supersomes CYP3A4 = target: T3, Supersomes CYP3A4 (Homo sapiens, UniProt P08684); test: Individual recombinant CYP isoform stability assay, CYP3A4; conditions: 100 pmol per mL CYP3A4, 5 microgram per mL compound, 37° C., 0-60 minutes
T3 construct: purchased
T3 sequence (P08684 whole entry, canonical isoform): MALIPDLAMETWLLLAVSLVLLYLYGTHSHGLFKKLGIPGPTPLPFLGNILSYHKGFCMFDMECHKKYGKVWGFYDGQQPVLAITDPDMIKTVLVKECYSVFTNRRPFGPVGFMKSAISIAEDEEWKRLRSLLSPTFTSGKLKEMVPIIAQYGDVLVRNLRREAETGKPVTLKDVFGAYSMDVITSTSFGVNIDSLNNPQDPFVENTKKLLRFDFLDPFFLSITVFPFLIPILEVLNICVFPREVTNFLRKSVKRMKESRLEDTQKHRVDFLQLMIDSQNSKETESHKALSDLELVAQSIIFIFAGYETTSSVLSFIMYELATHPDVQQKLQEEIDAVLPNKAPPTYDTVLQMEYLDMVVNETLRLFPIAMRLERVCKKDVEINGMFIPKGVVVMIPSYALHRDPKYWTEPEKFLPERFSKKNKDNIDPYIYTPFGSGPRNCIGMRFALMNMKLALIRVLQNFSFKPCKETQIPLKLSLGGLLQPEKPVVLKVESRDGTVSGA
Experimental: as §1, §2

Supersomes CYP2C8 = target: T4, Supersomes CYP2C8 (Homo sapiens, UniProt P10632); test: Individual recombinant CYP isoform stability assay, CYP2C8; conditions: 200 pmol per mL CYP2C8, 5 microgram per mL compound, 37° C., 0-60 minutes
T4 construct: purchased
T4 sequence (P10632 1-490): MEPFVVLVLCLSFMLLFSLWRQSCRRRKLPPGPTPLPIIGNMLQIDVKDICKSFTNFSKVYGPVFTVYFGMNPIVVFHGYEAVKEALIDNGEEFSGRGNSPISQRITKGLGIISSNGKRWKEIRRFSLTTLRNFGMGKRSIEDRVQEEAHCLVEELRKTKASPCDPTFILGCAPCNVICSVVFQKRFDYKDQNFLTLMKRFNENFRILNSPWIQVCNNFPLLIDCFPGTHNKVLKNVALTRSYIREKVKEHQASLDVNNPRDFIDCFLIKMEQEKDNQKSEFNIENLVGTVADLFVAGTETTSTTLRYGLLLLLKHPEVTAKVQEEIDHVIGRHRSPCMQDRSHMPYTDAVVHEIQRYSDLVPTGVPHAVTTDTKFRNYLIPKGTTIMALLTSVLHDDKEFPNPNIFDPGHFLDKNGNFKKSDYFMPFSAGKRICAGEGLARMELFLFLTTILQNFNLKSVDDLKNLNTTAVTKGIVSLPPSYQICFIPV
Experimental: as §1, §2

T1 sequence (P20815 whole entry, canonical isoform): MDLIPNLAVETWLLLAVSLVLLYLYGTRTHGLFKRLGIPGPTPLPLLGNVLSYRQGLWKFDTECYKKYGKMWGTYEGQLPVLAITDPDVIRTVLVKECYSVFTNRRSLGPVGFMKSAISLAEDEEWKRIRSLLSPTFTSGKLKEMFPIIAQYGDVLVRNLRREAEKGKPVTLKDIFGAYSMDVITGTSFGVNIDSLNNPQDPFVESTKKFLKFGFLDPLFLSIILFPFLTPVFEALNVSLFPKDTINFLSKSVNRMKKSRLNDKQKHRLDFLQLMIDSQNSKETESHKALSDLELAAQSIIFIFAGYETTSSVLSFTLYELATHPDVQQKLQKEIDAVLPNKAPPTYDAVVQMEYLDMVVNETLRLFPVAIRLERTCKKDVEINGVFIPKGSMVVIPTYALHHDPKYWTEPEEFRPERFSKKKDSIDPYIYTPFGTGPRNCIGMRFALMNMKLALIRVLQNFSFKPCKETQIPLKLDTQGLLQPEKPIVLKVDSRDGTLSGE

CN(C)CCOC(c1ccccc1)c1ccnn1C (stereo not shown) [Cizolirtine, N,N-dimethyl-2-[(1-methyl-1H-pyrazol-5-yl)phenylmethoxy]ethanamine]
not metabolized: metabolism by CYP3A5 (Supersomes CYP3A5) | metabolism by CYP2C9 (Supersomes CYP2C9) | metabolism by CYP3A4 (Supersomes CYP3A4) | metabolism by CYP2C8 (Supersomes CYP2C8)
